Measured values from patent publication US20210386788A1, “ER TUNABLE PROTEIN REGULATION” (Obsidian Therapeutics, Inc., priority 2018, published 2021).
Where “and” joins values, the source holds several entries; their conditions need not be identical. Equal entries are not always repeated. Where two headings read alike, the source gives them in different places.

Assays:
[1] = system: primary human T cells; experiment: IL12 (p70) in lentivirus transduced primary human T cells, Bazedoxifene dose response (MSD assay); type: cell-based
Description: Primary human T cells were expanded with CD3/CD28 Dynabeads, transduced with lentivirus constructs and expanded for 10 days. Beads were removed and cells were frozen. T cells were later thawed and 100,000 cells were treated overnight with different doses of Bazedoxifene (BZD). Transduction efficiency was assessed by flow cytometry using CD19-Fc staining. The response of IL12 in CD19 CAR-IL12 tandem constructs to increasing concentrations of ligand was measured using OT-001736 construct with increasing doses of BZD starting at 0.01 nM to up to 3 μM for 23 hours. IL12 levels were measured using MSD assay. Controls tested in the experiment included OT-001357, which constitutively expresses IL12 and OT-001407, which is not expected to show any IL12 expression.
Additional ER mutants were tested in primary human T cells as described above, except T cells were treated on day 9 of expansion, and not frozen and thawed prior to the experiment (Table 15).

[2] = Pharmacokinetics of Bazedoxifene in CD-1 mice (plasma, LC-MS-MS); type: in vivo; parameters: Plasma Bazedoxifene Concentrations: unit not given here
[3] = 3 mg intravenous (IV); cited from earlier work

Cc1c(-c2ccc(O)cc2)n(Cc2ccc(OCCN3CCCCCC3)cc2)c2ccc(O)cc12 [Bazedoxifene]
EC50 ([1]; T-cell, BZD dose response in primary human T cells expressing OT-001736, read-out: EC50 of IL12 induction): 200 nM
lowest BZD concentration that induced IL12 expression ([1]; primary human T cells expressing OT-001736): 0.05 µM
Plasma Bazedoxifene Concentrations ([2]; 10 mg/kg single dose, 0.25 hours post dose, free and bound combined, individual animals): 0.062 and 0.127 and 0.287
Plasma Bazedoxifene Concentrations ([2]; 10 mg/kg single dose, 0.5 hours post dose, free and bound combined, individual animals): 0.050 and 0.091
Plasma Bazedoxifene Concentrations ([2]; 10 mg/kg single dose, 1 hours post dose, free and bound combined, individual animals): 0.089 and 0.105
Plasma Bazedoxifene Concentrations ([2]; 10 mg/kg single dose, 2 hours post dose, free and bound combined, individual animals): 0.096 and 0.107
Plasma Bazedoxifene Concentrations ([2]; 10 mg/kg single dose, 4 hours post dose, free and bound combined, individual animals): 0.053 and 0.055
Plasma Bazedoxifene Concentrations ([2]; 10 mg/kg single dose, 7 hours post dose, free and bound combined, individual animals): 0.036 and 0.035
Plasma Bazedoxifene Concentrations ([2]; 10 mg/kg single dose, 10 hours post dose, free and bound combined, individual animals): 0.033 and 0.028 and 0.016
Plasma Bazedoxifene Concentrations ([2]; 10 mg/kg single dose, 24 hours post dose, free and bound combined, individual animals): 0.005 and 0.003 and 0.004
Plasma Bazedoxifene Concentrations ([2]; 100 mg/kg single dose, 0.25 hours post dose, free and bound combined, individual animals): 1.268 and 0.949 and 2.590
Plasma Bazedoxifene Concentrations ([2]; 100 mg/kg single dose, 0.5 hours post dose, free and bound combined, individual animals): 2.113 and 2.208 and 4.544
Plasma Bazedoxifene Concentrations ([2]; 100 mg/kg single dose, 1 hours post dose, free and bound combined, individual animals): 2.590 and 5.138
Plasma Bazedoxifene Concentrations ([2]; 100 mg/kg single dose, 2 hours post dose, free and bound combined, individual animals): 2.272 and 4.161
Plasma Bazedoxifene Concentrations ([2]; 100 mg/kg single dose, 4 hours post dose, free and bound combined, individual animals): 1.208 and 1.902
Plasma Bazedoxifene Concentrations ([2]; 100 mg/kg single dose, 7 hours post dose, free and bound combined, individual animals): 0.894 and 0.463 and 0.970
Plasma Bazedoxifene Concentrations ([2]; 100 mg/kg single dose, 10 hours post dose, free and bound combined, individual animals): 0.754 and 0.497 and 0.713
Plasma Bazedoxifene Concentrations ([2]; 100 mg/kg single dose, 24 hours post dose, free and bound combined, individual animals): 0.023 and 0.179 and 0.025
Plasma Bazedoxifene Concentrations ([2]; 200 mg/kg single dose, 0.25 hours post dose, free and bound combined, individual animals): 1.495 and 1.013
Plasma Bazedoxifene Concentrations ([2]; 200 mg/kg single dose, 0.5 hours post dose, free and bound combined, individual animals): 2.314 and 1.707
Plasma Bazedoxifene Concentrations ([2]; 200 mg/kg single dose, 1 hours post dose, free and bound combined, individual animals): 3.397 and 4.013
Plasma Bazedoxifene Concentrations ([2]; 200 mg/kg single dose, 2 hours post dose, free and bound combined, individual animals): 2.590 and 3.567
Plasma Bazedoxifene Concentrations ([2]; 200 mg/kg single dose, 4 hours post dose, free and bound combined, individual animals): 1.327 and 2.357
Plasma Bazedoxifene Concentrations ([2]; 200 mg/kg single dose, 7 hours post dose, free and bound combined, individual animals): 0.866 and 0.726 and 1.189
Plasma Bazedoxifene Concentrations ([2]; 200 mg/kg single dose, 10 hours post dose, free and bound combined, individual animals): 0.699 and 0.732 and 0.715
Plasma Bazedoxifene Concentrations ([2]; 200 mg/kg single dose, 24 hours post dose, free and bound combined, individual animals): 0.297 and 0.314 and 0.180
concentration at 0.5 h ([2]; CD-1, mouse, plasma, oral, 10 mg/kg, 10 mg/kg single dose, 0.5 hours post dose, free and bound combined, individual animals, read-out: Plasma Bazedoxifene Concentrations): 71 nM
concentration at 1 h ([2]; CD-1, mouse, plasma, oral, 10 mg/kg, 10 mg/kg single dose, 1 hours post dose, free and bound combined, individual animals, read-out: Plasma Bazedoxifene Concentrations): 97 nM
concentration at 2 h ([2]; CD-1, mouse, plasma, oral, 10 mg/kg, 10 mg/kg single dose, 2 hours post dose, free and bound combined, individual animals, read-out: Plasma Bazedoxifene Concentrations): 77 nM
concentration at 4 h ([2]; CD-1, mouse, plasma, oral, 10 mg/kg, 10 mg/kg single dose, 4 hours post dose, free and bound combined, individual animals, read-out: Plasma Bazedoxifene Concentrations): 49 nM
concentration at 7 h ([2]; CD-1, mouse, plasma, oral, 10 mg/kg, 10 mg/kg single dose, 7 hours post dose, free and bound combined, individual animals, read-out: Plasma Bazedoxifene Concentrations): 34 nM
concentration at 1 h ([2]; CD-1, mouse, plasma, oral, 100 mg/kg, 100 mg/kg single dose, 1 hours post dose, free and bound combined, individual animals, read-out: Plasma Bazedoxifene Concentrations): 3590 nM
concentration at 2 h ([2]; CD-1, mouse, plasma, oral, 100 mg/kg, 100 mg/kg single dose, 2 hours post dose, free and bound combined, individual animals, read-out: Plasma Bazedoxifene Concentrations): 2820 nM
concentration at 4 h ([2]; CD-1, mouse, plasma, oral, 100 mg/kg, 100 mg/kg single dose, 4 hours post dose, free and bound combined, individual animals, read-out: Plasma Bazedoxifene Concentrations): 1380 nM
concentration at 0.25 h ([2]; CD-1, mouse, plasma, oral, 200 mg/kg, 200 mg/kg single dose, 0.25 hours post dose, free and bound combined, individual animals, read-out: Plasma Bazedoxifene Concentrations): 1060 nM
concentration at 0.5 h ([2]; CD-1, mouse, plasma, oral, 200 mg/kg, 200 mg/kg single dose, 0.5 hours post dose, free and bound combined, individual animals, read-out: Plasma Bazedoxifene Concentrations): 1510 nM
concentration at 1 h ([2]; CD-1, mouse, plasma, oral, 200 mg/kg, 200 mg/kg single dose, 1 hours post dose, free and bound combined, individual animals, read-out: Plasma Bazedoxifene Concentrations): 2400 nM
concentration at 2 h ([2]; CD-1, mouse, plasma, oral, 200 mg/kg, 200 mg/kg single dose, 2 hours post dose, free and bound combined, individual animals, read-out: Plasma Bazedoxifene Concentrations): 3270 nM
concentration at 4 h ([2]; CD-1, mouse, plasma, oral, 200 mg/kg, 200 mg/kg single dose, 4 hours post dose, free and bound combined, individual animals, read-out: Plasma Bazedoxifene Concentrations): 1580 nM
Cmax ([2]; CD-1, mouse, plasma, dose of 200 mg/kg per os (PO), read-out: Murine Cmax): ~3000 nM
Cmax [3]: ~100 nM
